Source: patent US7173015B2, “Inhibition of Syk kinase expression” (The Trustees of the University of Pennsylvania, priority 2003, dated 2007)
Entries after “also recorded” stand apart in the source; their conditions may differ.

Tests used:
Syk kinase = test: Western blot densitometry of Syk kinase protein in RBL-2H3 cells transfected with siRNA; type: cell-based, rat; conditions: for Syk (densitometry quantification of Syk kinase expression) / Syk Corr (Syk densitometry units corrected for % actin expression in each lane): 48 hours after transfection; for Syk (densitometry quantification of Syk kinase expression): Western blot; for Syk Corr (Syk densitometry units corrected for % actin expression in each lane): normalized to actin; for % Syk Inhibition: compared to transfection control
Protocol: Rat basophilic cells (RBL-2H3) were grown in EMEM supplemented with 17% FBS, 100 U penicillin, 100 μg/ml streptomycin, and 4 mM glutamine at 37° C. in 5% CO2.
SIRNA was introduced into RBL-2H3 cells and into monocytes by transfection. For the transfections, 5×10^4 RBL-2H3 cells or 1×10^5 monocytes were seeded into each well of a 24-well plate. Twenty-four hours later, the complete medium was replaced with 400 μl fresh medium lacking serum and antibiotic and siRNA/Lipofectamine 2000 complex was added to each well. For the RBL cells, the siRNA/Lipofectamine 2000 complex was formed by adding 3 μl of siRNA duplex (20 μM) and 3 μl of Lipofectamine 2000 to 100 μl Opti-mem without serum or antibiotic according to the manufacturer's protocol. For monocytes, the siRNA/Lipofectamine 2000 complex was formed by adding 3 μl of siRNA duplex (20 μM) and 1 μl of Lipofectamine 2000 to 100 μl Opti-mem without serum or antibiotic. Cells were incubated at 37° C. for 48 hours before examination of kinase protein expression by Western blotting
Lysates were prepared by boiling cells in Laemmli sample buffer (2% SDS, 10% glycerol, 100 mM DTT, and 60 mM Tris (pH 6.8) for 5 minutes. Proteins in lysates were separated by SDS-PAGE (10% polyacrylamide) and transferred to a nitrocellulose membrane in […] (25 mM Tris, 190 mM glycine, and 20% methanol). The nitrocellulose membrane was incubated overnight at 4° C. with 1 μg/ml rabbit anti-murine Syk kinsae polyclonal Ab before incubation with goat anti-rabbit HRP (1.5 h at room temperature). Protein bands on the membrane were visualized with chemiluminescence reagent according to the manufacturer's protocol. After detection of Syk kinase protein, the anti-Syk kinase Ab was removed by incubating the membrane in a stripping buffer containing 100 mM 2-ME, 2% SDS, and 62.5 mM Tris-HCL (pH 6.7) for 30 minutes at 50° C. with occasional agitation. The membrane was then reprobed with anti-actin Ab and bands on the membrane were visualized with chemiluminescence reagent. Protein levels of Syk kinase were quantified by densitometry (Personal Densitometer, Molecular Dynamics).

Syk = test: Western blot of Syk protein expression in HS-24 cells after siRNA treatment; type: cell-based; conditions: 48 hr treatment
Protocol: (§1) FIGS. 5A and 5B. (FIG. 5A) HS-24 cells, following siRNA treatment, were lysed and equal amounts of total protein in HS-24 cell lysates were resolved by 10% SDS gel electrophoresis, and analyzed by Western blot using monoclonal antibody to Syk or actin. Lane 1—no treatment, lane 2—siRNA-1 (control) 24 h treatment, lane 3—siRNA-1 48 h treatment, lane 4—siRNA-2 24 h treatment, lane 5—siRNA-2 48 h treatment. (FIG. 5B) RNA was isolated and RT-PCR was performed for Syk and β-actin. Lane 1—no treatment, lane 2—SiRNA-1 (control) 48 h treatment, lane 3—siRNA-2 48 h treatment.
HS-24 cells (2×10^5) were pre-treated with 3 μl of siRNA-1 (control)
(§2) or Syk antisense, with Lipofectamine 2000 in a 12-well plate for 24 or 48 hr, and stimulated by 10 ng/ml of TNF overnight. Read-outs: IL-6 in culture supernatant (ELISA) and cell surface expression of ICAM-1 (Flow cytometry). As shown by Western blot analysis ([…]), siRNA-2 caused a decrease in Syk protein expression following 48 hr of treatment.
(§3) More specifically, HS-24 cells were transiently transfected with siRNA-2 or siRNA-1 (control). Cell surface expression of ICAM-1, as well as release of IL-6, were then examined.

Syk mRNA = test: RT-PCR of Syk mRNA in HS-24 cells after siRNA treatment; type: cell-based; conditions: 48 h treatment
Protocol: as §1, §3

HS-24 cells = test: Viability of HS-24 cells by trypan blue dye exclusion; type: cell-based; conditions: no significant effect on viability
[1] = system: IL-6 release by HS-24 cells; test: IL-6 release of HS-24 cells into culture supernatant (ELISA); type: cell-based
Protocol: (§4) FIGS. 6A and 6B. HS-24 cells plated on either polylysine coated plates (non stimulated, resting) or fibronectin coated plates (stimulated) were treated with siRNA-2, or siRNA-1 (control), or piceatannol. Cells were treated with 10 ng/ml of TNF during overnight culture. (FIG. 6A) Following siRNA (48 h) or piceatannol (16 h) treatment, cells were removed, immunostained with anti-CD54 (ICAM-1) and analysed by flow cytometry. (FIG. 6B) Cell culture supernatants were analysed for IL-6 release using an IL-6 ELISA kit. *P<0.05, **P<0.005 as compared to untreated cells (e.g., untreated with siRNA) stimulated with TNF. Results are representative of three to five independent experiments.
as §2

[2] = system: ICAM-1 (CD54) expression in HS-24 cells; test: Cell surface expression of ICAM-1 in HS-24 cells (flow cytometry); type: cell-based; conditions: for TNF-induced ICAM-1 expression: siRNA 48 h, TNF 10 ng/ml overnight
Protocol: as §4, §2

siRNA-1: Syk kinase siRNA duplex; sense 5′ gaagcccuucaaccggccc UU 3′ (SEQ ID NO: 23), antisense 3′-UU cuucgggaaguuggccggg 5′ (SEQ ID NO: 24) (sense GAAGCCCUUCAACCGGCCCUU; antisense GGGCCGGUUGAAGGGCUUCTT; chemistry not given here)
Syk (densitometry quantification of Syk kinase expression) (Syk kinase): 953 densitometry units | Syk Corr (Syk densitometry units corrected for % actin expression in each lane) (Syk kinase): 1114 densitometry units | % Syk Inhibition (Syk kinase): 45% | Syk protein expression (Syk): not | Syk mRNA expression (Syk mRNA): not

Oc1cc(O)cc(/C=C/c2ccc(O)c(O)c2)c1 [piceatannol]
viability (trypan blue dye exclusion) (HS-24 cells): > 96%

siRNA-2: Syk kinase siRNA duplex; sense 5′-ccucaucagggaauaucug UU 3′ (SEQ ID NO: 25), antisense 3′-UU ggaguagucccuuauagac 5′ (SEQ ID NO: 26) (sense CCUCAUCAGGGAAUAUCUGUU; antisense CAGAUAUUCCCUGAUGAGGTT; chemistry not fully specified)
Syk (densitometry quantification of Syk kinase expression) (Syk kinase): 627 densitometry units | Syk Corr (Syk densitometry units corrected for % actin expression in each lane) (Syk kinase): 997 densitometry units | % Syk Inhibition (Syk kinase): 51% | Syk protein expression (Syk): decrease; also recorded: significantly suppressed | IL-6 release (summary of FIG. 6B) ([1]; HS-24 cells, TNF-induced): down-regulates | down-regulation of IL-6 release ([1]; TNF-stimulated HS-24 cells, poly-L-lysine and fibronectin culture, significant in fibronectin-adherent culture (P<0.05)): 55–58% | TNF-induced ICAM-1 expression (summary of FIG. 6A) ([2]; HS-24 cells): down-regulates | constitutive ICAM-1 expression ([2]; HS-24 cells without TNF stimulation): not affected | TNF-induced ICAM-1 expression ([2]; fibronectin-plated HS-24 cells): down-regulated | TNF-induced ICAM-1 expression ([2]; poly-L-lysine-plated HS-24 cells): no significant effect | Syk mRNA expression (Syk mRNA): significantly suppressed
